Measured values: PMC12589546, “A plastid carbohydrate carrier mediates ribose recycling from nucleotide catabolism and glucose export from starch degradation” (Nature Communications, 2025)

Molecular target: T1, At-pGlcT (At-pGlcTNTD) (Arabidopsis thaliana, UniProt B9DGP1)
T1 construct: gene At5g16150; plastid transit peptide (residues 1-82) replaced by E. coli PhoR residues 1-54 (membrane-targeting NTD); C-terminal 6xHis tag kept; expressed in E. coli sugar-uptake mutants, intact-cell uptake
T1 sequence (B9DGP1 83-546): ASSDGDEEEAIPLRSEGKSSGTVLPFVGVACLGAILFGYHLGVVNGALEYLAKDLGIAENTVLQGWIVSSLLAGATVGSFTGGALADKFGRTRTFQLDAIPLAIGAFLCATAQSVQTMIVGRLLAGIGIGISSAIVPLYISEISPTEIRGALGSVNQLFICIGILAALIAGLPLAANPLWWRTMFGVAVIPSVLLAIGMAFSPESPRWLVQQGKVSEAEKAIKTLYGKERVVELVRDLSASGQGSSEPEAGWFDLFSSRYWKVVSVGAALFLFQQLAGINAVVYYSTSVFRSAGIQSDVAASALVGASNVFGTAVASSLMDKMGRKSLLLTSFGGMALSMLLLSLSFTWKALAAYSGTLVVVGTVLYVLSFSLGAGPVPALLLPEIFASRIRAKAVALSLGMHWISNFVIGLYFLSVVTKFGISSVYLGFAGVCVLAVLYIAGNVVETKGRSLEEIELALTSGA
Test: competition with […]-ribose uptake in E. coli ΔrbsC ΔxylH ΔalsC
Assay type: cell-based
Conditions: 1 mM 14C-ribose, 10 mM unlabelled sugar, pH 7, 37 °C, 30 min, competitive

OC[C@H]1OC(O)[C@H](O)[C@@H](O)[C@@H]1O (some centres unmarked) [glucose]
inhibition of 14C-ribose uptake at 10 mM (14C-glucose uptake also measured): but also glucose was an equally efficient suppressor

OCC1(O)OC[C@@H](O)[C@@H](O)[C@@H]1O (some centres unmarked) [fructose]
inhibition of 14C-ribose uptake at 10 mM (3H-fructose uptake also measured): its presence also reduced the uptake of the radioactively labeled ribose
